The text below walks through data of patent publication US10226451B2, “Substituted bicyclic compounds as bromodomain inhibitors” (ZENITH EPIGENETICS LTD, priority 2013, dated 2019).

Where only a bound is given, the exact number is not on record here.

The test system of test [1] is MV4-11 cells xenograft. The test is described as follows: In vivo efficacy, acute myeloid leukemia xenograft model using MV4-11 cells. As to conditions: MV4-11 xenograft, nu/nu mice, oral dosing, tumor growth inhibition. Set-up: species or system mouse. The method, then: MV4-11 cells (ATCC) were grown under standard cell culture conditions and (NCr) nu/nu fisol strain of female mice age 6-7 weeks were injected with 5×10^6 cells/animal in 100 μL PBS+100 μL Matrigel in the lower left abdominal flank. By approximately day 18-21 after MV4-11 cells injection, mice were randomized based on tumor volume (L×W×H)/2) of average ˜100-300 mm^3. Mice were dosed orally with compound at 5 to 120 mg/kg b.i.d and/or q.d. on a continuous dosing schedule and at 2.5 to 85 mg/kg q.d. on a 5 day on 2 day off, 100 mg/kg q.d. on a 4 day on and 3 day off, 135 mg/kg q.d. on a 3 day on and 4 day off, 180 mg/kg on a 2 day on and 5 day off and 240 mg/kg on a 1 day on and 6 days off dosing schedules in EA006 formulation at 10 mL/kg body weight dose volume. Tumor measurements were taken with electronic micro calipers and body weights measured on alternate days beginning from dosing period. The average tumor volumes, percent Tumor Growth Inhibition (TGI) and % change in body weights were compared relative to Vehicle control animals. The means, statistical analysis and the comparison between groups were calculated using Student's t-test in Excel.

For test [2], the system named is c-myc in Human AML MV4-11 cells. The test is described as follows: Inhibition of c-MYC expression (mRNA, real-time PCR) in MV4-11 cells. The following applies: 3 h, mRNA by real-time PCR. The format is cell-based. The method in brief: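 Cells at 2.5×10^4 per well in IMDM/10% FBS were treated with rising compound concentrations or 0.1% DMSO for 3 h at 37° C., in triplicate. cMYC mRNA was measured by one-step TaqMan qRT-PCR, normalised to cyclophilin, and expressed as fold expression relative to control.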
Background: Real-time PCR tracks product formation cycle by cycle.

Test [3] concerns Bcl2 and c-myc gene expression in MV4-11 and MM1.s tumors. As to the kind of experiment: Evaluation of target engagement in xenograft tumors (PD biomarkers). As to conditions: oral dose, tumors harvested 3, 6, 12, 24 hrs post dose. Type of test: in vivo, mouse. On the procedure: MV4-11 and MM1.s cells (ATCC) were grown under standard cell culture conditions and (NCr) nu/nu fisol strain of female mice age 6-7 weeks were injected with 5×10^6 cells/animal in 100 μL PBS+100 μL Matrigel in the lower left abdominal flank. By approximately day 28 after MV4-11 and MM1.s cells injection, mice were randomized based on tumor volume (L×W×H)/2) of average ˜500 mm^3. Mice were dosed orally with compound in EA006 formulation at 10 mL/kg body weight dose volume and tumors harvested 3, 6, 12, 24 hrs post dose for Bcl2 and c-myc gene expression analysis as PD biomarkers.

The subject of test [4] is Human AML MV-4-11 cells. The test is described as follows: Inhibition of cell proliferation in MV4-11 cells (CellTiter Aqueous One). Type of test: cell-based. The following applies: 72 h. The method in brief: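 MV4-11 cells at 5×10^4/well in IMDM with 10% FBS were exposed to increasing compound concentrations or 0.1% DMSO, in triplicate, for 72 h at 37 °C. A further 3-4 h with CellTiter Aqueous One reagent followed. A490, blank-corrected and expressed relative to DMSO, gave IC50.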

Test [5] deals with MM1.s cells xenograft. As to the kind of experiment: In vivo efficacy, multiple myeloma xenograft model using MM1.s cells. More on the design: species or system mouse. As to conditions: SCID-Beige mice, oral dosing, tumor growth inhibition. On the procedure:
MM1.s cells (ATCC) were grown under standard cell culture conditions and SCID-Beige strain of female mice age 6-7 weeks were injected with 10×10^6 cells/animal in 100 μL PBS+100 μL Matrigel in the lower left abdominal flank. By approximately day 21 after MM1.s cells injection, mice were randomized based on tumor volume (L×W×H)/2) of average ˜120 mm^3. Mice were dosed orally with compound at 25 to 90 mg/kg b.i.d and or q.d in EA006 formulation at 10 mL/kg body weight dose volume. Tumor measurements were taken with electronic micro calipers and body weights measured on alternate days beginning from dosing period. The average tumor volumes, percent Tumor Growth Inhibition (TGI) and % change in body weights were compared relative to Vehicle control animals. The means, statistical analysis and the comparison between groups were calculated using Student's t-test in Excel.

Test [6] relates to OCI-3 AML cells xenograft. The test is described as follows: In vivo efficacy, acute myeloid leukemia xenograft model using OCI-3 AML cells. More on the design: species or system mouse. As to conditions: OCI-3 AML xenograft, nu/nu mice, oral dosing, tumor growth inhibition. On the procedure:
OCI-3 AML cells (DMSZ) were grown under standard cell culture conditions and (NCr) nu/nu fisol strain of female mice age 6-7 weeks were injected with 10×10^6 cells/animal in 100 μL PBS+100 μL Matrigel in the lower left abdominal flank. By approximately day 18-21 after OCI-3 AML cells injection, mice were randomized based on tumor volume (L×W×H)/2) of average ˜100-300 mm^3. Mice were dosed orally with compound at 30 mg/kg b.i.d on a continuous dosing schedule and at 2.5 to 45 mg/kg q.d. on a 5 day on and 2 day off dosing schedule in EA006 formulation at 10 mL/kg body weight dose volume. Tumor measurements were taken with electronic micro calipers and body weights measured on alternate days beginning from dosing period. The average tumor volumes, percent Tumor Growth Inhibition (TGI) and % change in body weights were compared relative to Vehicle control animals. The means, statistical analysis and the comparison between groups were calculated using Student's t-test in Excel.

Usually IC50 stands for the concentration needed to halve the response being measured. Low values mean higher potency, high ones lower potency. For the molecule `Cc1noc(C)c1-c1cc(-c2c(C)nn(C)c2C)c2c(c1)[nH]c(=O)n2C` [Example Compound 9, 5-(3,5-dimethylisoxazol-4-yl)-1-methyl-7-(1,3,5-trimethyl-1H-pyrazol-4-yl)-1H-benzo[d]imidazol-2(3H)-one], the In vivo activity result in test [1], in test [3], in test [5] and in test [6] was “Active” throughout. Besides, the IC50 in test [2] and in test [4] was no more than 300 nM in each case.
